In brackets after ≈: the same amount, converted by molar mass.
How the values were obtained:
Mycoplasma genitalium = experiment: Antibacterial activity against Mycoplasma genitalium G37C assessed as bacterial growth inhibition incubated for 7 days by phenol red reagent based microbroth dilution assay; assay type: functional; settings: Mycoplasmoides genitalium, 168 h, time 7 day
Trichomonas vaginalis = experiment: Anti-trichomonal activity against Trichomonas vaginalis assessed as inhibition of parasite growth incubated for 18 hrs; assay type: functional, organism-based
[1] = Selectivity index, ratio of IC50 for cytotoxicity against african green monkey Vero cells incubated for 48 hrs by celltiter blue assay to MIC for antibacterial activity against Mycoplasma genitalium G37C assessed as bacterial growth inhibition incubated for 7 days by phenol red reagent based microbroth dilution assay; assay type: toxicity, cell-based; settings: read-out: Selectivity Index
[2] = Selectivity index, ratio of IC50 for cytotoxicity against african green monkey Vero cells incubated for 48 hrs by celltiter blue assay to EC50 for anti-trichomonal activity against Trichomonas vaginalis assessed as inhibition of parasite growth incubated for 18 hrs; assay type: toxicity, cell-based; settings: read-out: Ratio IC50/EC50

SMILES | MIC90 (Mycoplasma genitalium) | EC50 (Trichomonas vaginalis) | selectivity ratio at 48 h [1] | selectivity ratio at 48 h [2]
C/C=C/[C@@H]1C=C[C@@H]2C[C@H](C)CC[C@H]2[C@]1(C)/C(O)=C1\C(=O)[C@H](CO)N(C)C1=O | 0.3 µM (≈ 0.112 µg/mL) | 3 µM | 46.9 | 4.2
C#CCOC[C@@H]1C(=O)/C(=C(/O)[C@@]2(C)[C@@H](/C=C/C=C/C[C@@H](C)OCC#C)C(C)=C[C@H]3C[C@@H](C)CC[C@@H]32)C(=O)N1C | 5.8 µM (≈ 3.1 µg/mL) | > 10 µM | 14 | –
C/C=C/[C@@H]1C=C[C@@H]2C[C@H](C)CC[C@H]2[C@]1(C)/C(O)=C1\C(=O)[C@@H](CO)N(C)C1=O | 2.1 µM (≈ 0.784 µg/mL) | > 10 µM | 11.5 | –
C/C=C/C=C/[C@H]1C(C)=C[C@H]2C[C@@H](C)CC[C@@H]2[C@@]1(C)/C(O)=C1\C(=O)[C@@H](COCc2cn(CCc3ccc(O)cc3)nn2)N(C)C1=O | 5 µM (≈ 3.07 µg/mL) | > 10 µM | 6.1 | –
CCCCC[C@H]1[C@@H](C)C[C@H]2C[C@@H](C)CC[C@@H]2[C@@]1(C)/C(O)=C1\C(=O)[C@@H](CO)N(C)C1=O | 0.5 µM (≈ 0.21 µg/mL) | 2.1 µM | 64 | > 16
CCCCC[C@H]1C(C)=C[C@H]2C[C@@H](C)CC[C@@H]2[C@@]1(C)/C(O)=C1\C(=O)[C@@H](CO)N(C)C1=O | 3.8 µM (≈ 1.59 µg/mL) | 0.71 µM | 32 | > 170
CCCCCC1=C(C)C[C@H]2C[C@@H](C)CC[C@@H]2[C@@]1(C)/C(O)=C1\C(=O)[C@@H](CO)N(C)C1=O | 29.9 µM (≈ 12.5 µg/mL) | > 10 µM | 13.1 | > 8
C/C=C/C=C/[C@H]1C(C)=C[C@H]2C[C@@H](C)CC[C@@H]2[C@@]1(C)/C(O)=C1\C(=O)[C@@H](COCc2cn(Cc3ccc(C(=O)O)cc3)nn2)N(C)C1=O | 19.9 µM (≈ 12.5 µg/mL) | 2.2 µM | 1.5 | 12.8
C/C=C/C=C/[C@H]1C(C)=C[C@H]2C[C@@H](C)CC[C@@H]2[C@@]1(C)/C(O)=C1\C(=O)[C@H](COCc2cn(CCCO)nn2)N(C)C1=O | 22.6 µM (≈ 12.5 µg/mL) | > 10 µM | – | –
C/C=C/C=C/[C@H]1C(C)=C[C@H]2C[C@@H](C)CC[C@@H]2[C@@]1(C)/C(O)=C1\C(=O)[C@H](COCc2cn(CC3CCCO3)nn2)N(C)C1=O (stereo partly drawn) | 12.5 µM (≈ 7.23 µg/mL) | > 10 µM | – | –
CC1=C[C@H]2C[C@@H](C)CC[C@@H]2[C@@](C)(/C(O)=C2\C(=O)[C@@H](COCc3cn(CCc4ccc(O)cc4)nn3)N(C)C2=O)[C@H]1/C=C/C=C/C[C@@H](C)O | 38.8 µM (≈ 25.6 µg/mL) | 5.4 µM | – | –
CC1=C[C@H]2C[C@@H](C)CC[C@@H]2[C@@](C)(/C(O)=C2\C(=O)[C@H](COCc3cn(CCO)nn3)N(C)C2=O)[C@H]1/C=C/C=C/C[C@@H](C)O | > 40 µM | > 10 µM | – | –
CC1=C[C@H]2C[C@@H](C)CC[C@@H]2[C@@](C)(/C(O)=C2\C(=O)[C@H](COCc3cn(CC4CCCCO4)nn3)N(C)C2=O)[C@H]1/C=C/C=C/C[C@@H](C)O (stereo partly drawn) | – | – | – | 19.6
CC1=C[C@H]2C[C@@H](C)CC[C@@H]2[C@@](C)(/C(O)=C2\C(=O)[C@H](COCc3cn(CCc4ccc(O)cc4)nn3)N(C)C2=O)[C@H]1/C=C/C=C/C[C@@H](C)O | 9.8 µM (≈ 6.46 µg/mL) | > 10 µM | 12.1 | –
C/C=C/C=C/[C@H]1C(C)=C[C@H]2C[C@@H](C)CC[C@@H]2[C@@]1(C)C(=O)[C@H]1C(=O)N(C)[C@H](CO)[C@H]1O | 7.5 µM (≈ 3.12 µg/mL) | > 10 µM | 2.8 | –
C/C=C/C=C/[C@H]1C(C)=C[C@H]2C[C@@H](C)CC[C@@H]2[C@@]1(C)/C(O)=C1\C(=O)[C@@H](COCc2cn(Cc3c[nH]c4ccccc34)nn2)N(C)C1=O | 4.9 µM (≈ 3.06 µg/mL) | > 10 µM | 17.9 | –
CC1=C[C@H]2C[C@@H](C)CC[C@@H]2[C@@](C)(/C(O)=C2\C(=O)[C@@H](COCc3cn(CCO)nn3)N(C)C2=O)[C@H]1/C=C/C=C/C[C@@H](C)O | 10.8 µM (≈ 6.29 µg/mL) | > 10 µM | 6.5 | –
C/C=C/C=C/[C@H]1C(C)=C[C@H]2C[C@@H](C)CC[C@@H]2[C@@]1(C)/C(O)=C1\C(=O)[C@@H](COCc2cn(CC3CCCCO3)nn2)N(C)C1=O (stereo partly drawn) | 5.2 µM (≈ 3.08 µg/mL) | > 10 µM | 8.1 | –

SMILES | MIC90 (Mycoplasma genitalium) | EC50 (Trichomonas vaginalis) | selectivity ratio at 48 h [1] | selectivity ratio at 48 h [2]
CC1=C[C@H]2C[C@@H](C)CC[C@@H]2[C@@](C)(/C(O)=C2\C(=O)[C@@H](COCc3cn(CC4CCCCO4)nn3)N(C)C2=O)[C@H]1/C=C/C=C/C[C@@H](C)O (stereo partly drawn) | 19.6 µM (≈ 12.5 µg/mL) | > 10 µM | – | –
C/C=C/[C@@H]1C=C[C@@H]2C[C@H](C)CC[C@H]2[C@]1(C)/C(O)=C1/C(=O)N[C@@H](CO)C1=O | 2.2 µM (≈ 0.791 µg/mL) | 2.5 µM | 40 | 35.9
C/C=C/C=C/[C@H]1C(C)=C[C@H]2C[C@@H](C)CC[C@@H]2[C@@]1(C)/C(O)=C1\C(=O)[C@H](COCc2cn(CC3CCCCO3)nn2)N(C)C1=O (stereo partly drawn) | 5.2 µM (≈ 3.08 µg/mL) | > 10 µM | 4.4 | –
CC1=C[C@H]2C[C@@H](C)CC[C@@H]2[C@@](C)(/C(O)=C2\C(=O)[C@@H](COCc3cn(Cc4ccc(C(=O)O)cc4)nn3)N(C)C2=O)[C@H]1/C=C/C=C/C[C@@H](C)O | 37 µM (≈ 24.9 µg/mL) | > 10 µM | – | –
CCCCC[C@H]1[C@H](C)C[C@H]2C[C@@H](C)CC[C@@H]2[C@@]1(C)/C(O)=C1\C(=O)[C@@H](CO)N(C)C1=O | 3.8 µM (≈ 1.59 µg/mL) | 2.7 µM | 51.6 | 72.6
C/C=C/C=C/[C@H]1C(C)=C[C@H]2C[C@@H](C)CC[C@@H]2[C@@]1(C)/C(O)=C1\C(=O)[C@@H](COCc2cn(CCCCO)nn2)N(C)C1=O | 11.1 µM (≈ 6.29 µg/mL) | > 10 µM | – | –
C/C=C/C=C/[C@H]1C(C)=C[C@H]2C[C@@H](C)CC[C@@H]2[C@@]1(C)/C(O)=C1\C(=O)[C@H](CO)N(C)C1=O | 25 µM (≈ 10.3 µg/mL) | > 10 µM | – | –
C/C=C/C=C/[C@H]1C(C)=C[C@H]2C[C@@H](C)CC[C@@H]2[C@@]1(C)/C(O)=C1\C(=O)[C@H](COCc2cn(Cc3c[nH]c4ccccc34)nn2)N(C)C1=O | 9.9 µM (≈ 6.18 µg/mL) | > 10 µM | 2.5 | –
C/C=C/C=C/[C@H]1C(C)=C[C@H]2C[C@@H](C)CC[C@@H]2[C@@]1(C)/C(O)=C1\C(=O)[C@@H](COCc2cn(CCCO)nn2)N(C)C1=O | 22.6 µM (≈ 12.5 µg/mL) | > 10 µM | – | –
CC1=C[C@H]2C[C@@H](C)CC[C@@H]2[C@@](C)(/C(O)=C2\C(=O)[C@@H](CO)N(C)C2=O)[C@H]1/C=C/C=C/C[C@@H](C)O | 0.9 µM (≈ 0.412 µg/mL) | 0.06 µM | 23.8 | 315
C/C=C/C=C/[C@H]1C(C)=C[C@H]2C[C@@H](C)CC[C@@H]2[C@@]1(C)/C(O)=C1/C(=O)N[C@H](CO)C1=O | 1 µM (≈ 0.4 µg/mL) | 0.8 µM | 94.8 | 119
C/C=C/C=C/[C@H]1C(C)=C[C@H]2C[C@@H](C)CC[C@@H]2[C@@]1(C)/C(O)=C1\C(=O)[C@@H](COC)N(C)C1=O | 3.7 µM (≈ 1.58 µg/mL) | > 10 µM | 6.7 | –
C/C=C/C=C/[C@H]1C(C)=C[C@H]2C[C@@H](C)CC[C@@H]2[C@@]1(C)/C(O)=C1\C(=O)[C@@H](COCC=C(C)C)N(C)C1=O | 6.4 µM (≈ 3.08 µg/mL) | > 10 µM | 8.8 | –
C/C=C/C=C/[C@H]1C(C)=C[C@H]2C[C@@H](C)CC[C@@H]2[C@@]1(C)/C(O)=C1\C(=O)[C@@H](COC(C)=O)N(C)C1=O | 12.5 µM (≈ 5.69 µg/mL) | > 10 µM | – | –
C/C=C/C=C/[C@H]1C(C)=C[C@H]2C[C@@H](C)CC[C@@H]2[C@@]1(C)/C(O)=C1\C(=O)[C@H](COCc2cn(CCO)nn2)N(C)C1=O | 5.8 µM (≈ 3.12 µg/mL) | > 10 µM | 9.7 | –
C#CCOC[C@@H]1C(=O)/C(=C(/O)[C@@]2(C)[C@@H](/C=C/C=C/C[C@@H](C)O)C(C)=C[C@H]3C[C@@H](C)CC[C@@H]32)C(=O)N1C | 6.3 µM (≈ 3.12 µg/mL) | 3.9 µM | 15.1 | 24.3
C/C=C/C=C/[C@H]1C(C)=C[C@H]2C[C@@H](C)CC[C@@H]2[C@@]1(C)/C(O)=C1\C(=O)[C@H](COCc2cn(CC3CCCC3)nn2)N(C)C1=O | 5.4 µM (≈ 3.11 µg/mL) | > 10 µM | 7.9 | –

From ChEMBL document CHEMBL6071196, “Semisynthetic Tetramate-Containing Fungal Metabolites with Activity against Trichomonas vaginalis and Mycoplasma genitalium” (ACS Med Chem Lett, 2024)
